The source of these data is PubChem BioAssay (NCI).

Some test systems named below: 786-0 renal; OVCAR-5 ovarian; PC-3 prostate; SNB-75 CNS; SK-MEL-5 melanoma; ACHN renal; BT-549 breast; UO-31 renal; HOP-92 NSCLC; MDA-N; EKVX NSCLC; SR leukemia; HL-60(TB) leukemia.
Holding throughout (test): inhibition of tumour cell growth, NCI panel, 48 h

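Method: 48-hour compound exposure of cells in 96-well plates, five concentrations, linear interpolation of endpoints. Definition used: TGI = concentration required for complete inhibition of growth.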

Turning to `NC(=O)CCC(NC(=O)c1c2ccccc2nc2ccccc12)C(=O)O` (stereo not drawn), the TGI in the experiment with 786-0 renal, in the experiment with OVCAR-5 ovarian, with PC-3 prostate, in the experiment on SNB-75 CNS, in the experiment with SK-MEL-5 melanoma and with ACHN renal was above 100 µM each time. Also, the TGI with BT-549 breast, with UO-31 renal, with HOP-92 NSCLC, in the experiment on MDA-N and in the experiment on EKVX NSCLC was above 100 µM throughout.
For `O=C(CN=C(CN(c1ccccc1)c1ccccc1)Oc1ccc(Cl)cc1Cl)n1ccnc1`, the TGI in the experiment on 786-0 renal, with OVCAR-5 ovarian, in the experiment with PC-3 prostate, in the experiment on SNB-75 CNS, with SR leukemia and in the experiment with SK-MEL-5 melanoma was above 100 µM each time. Moreover, the TGI in the experiment on ACHN renal, in the experiment with BT-549 breast, with UO-31 renal, in the experiment on HOP-92 NSCLC, in the experiment on MDA-N and in the experiment on EKVX NSCLC was above 100 µM each time.
`O=C1[C@@H](O)[C@@H]2CCCC[C@@]23CCCN13`: the TGI with 786-0 renal, in the experiment on OVCAR-5 ovarian, with PC-3 prostate, with SNB-75 CNS, in the experiment on SR leukemia and in the experiment on SK-MEL-5 melanoma was above 100 µM throughout. Moreover, the TGI with ACHN renal, with HL-60(TB) leukemia, in the experiment on UO-31 renal, with HOP-92 NSCLC, in the experiment on MDA-N and in the experiment with EKVX NSCLC was above 100 µM each time.
As to `O=S(=O)(CCC[C@H]1[C@@H](CCOCc2ccccc2)C2CCCN1O2)c1ccccc1` (stereo partly drawn), the TGI in the experiment on 786-0 renal, in the experiment on OVCAR-5 ovarian, with PC-3 prostate, in the experiment on SNB-75 CNS, in the experiment with SR leukemia and in the experiment on SK-MEL-5 melanoma was above 100 µM throughout. Moreover, the TGI in the experiment on ACHN renal, in the experiment on BT-549 breast, in the experiment on UO-31 renal, in the experiment on HOP-92 NSCLC, with MDA-N and with EKVX NSCLC was above 100 µM each time.
As to `CCCCC1(O)CC2CC1C(C)C2(C)C` (stereo not drawn), the TGI with 786-0 renal, with OVCAR-5 ovarian, in the experiment with PC-3 prostate, with SNB-75 CNS, with SR leukemia and with SK-MEL-5 melanoma was above 100 µM throughout. For the same compound, the TGI in the experiment on BT-549 breast was above 100 µM; in the experiment with HL-60(TB) leukemia, 64.6 µM; in the experiment on UO-31 renal, above 100 µM; with MDA-N, above 100 µM; with EKVX NSCLC, above 100 µM.
With `Cc1ccccc1Nc1nc(NNC(=O)Cc2ccccc2)nc(NNC(=O)c2ccncc2)n1`, the TGI in the experiment on 786-0 renal, in the experiment on SNB-75 CNS, with SR leukemia, with BT-549 breast, in the experiment with HL-60(TB) leukemia and with UO-31 renal was above 10 µM throughout. Further, the TGI with HOP-92 NSCLC, with MDA-N and in the experiment with EKVX NSCLC was above 10 µM each time.
On to `CC1=CC(=O)N(n2c(Cc3ccc(Cl)cc3)n[nH]c2=O)C1=O`, for which the TGI was above 100 µM in the experiment with 786-0 renal; above 100 µM in the experiment on OVCAR-5 ovarian; above 100 µM in the experiment with PC-3 prostate; 38.7 µM in the experiment with SR leukemia; above 100 µM with SK-MEL-5 melanoma; above 100 µM in the experiment with ACHN renal. The TGI in the experiment on BT-549 breast was above 100 µM; with UO-31 renal, above 100 µM; in the experiment with HOP-92 NSCLC it was 67.7 µM; with MDA-N, above 100 µM; in the experiment with EKVX NSCLC it was above 100 µM.
In the case of `O=c1[nH]nc(Cc2ccccc2)n1/N=C/c1ccc([N+](=O)[O-])cc1`, the TGI in the experiment on 786-0 renal, in the experiment with OVCAR-5 ovarian, with PC-3 prostate, in the experiment with SNB-75 CNS, in the experiment on SK-MEL-5 melanoma and in the experiment with ACHN renal was above 100 µM in each case. In addition, the TGI in the experiment on BT-549 breast, in the experiment with HL-60(TB) leukemia, with UO-31 renal, in the experiment on HOP-92 NSCLC, with MDA-N and with EKVX NSCLC was above 100 µM throughout.
`CCOc1cccc(-c2cc(=O)c3cc4c(cc3[nH]2)OCO4)c1`: the TGI in the experiment on 786-0 renal was 7.06 µM; in the experiment with OVCAR-5 ovarian, above 100 µM; in the experiment with PC-3 prostate, above 100 µM; in the experiment on SNB-75 CNS, 36.1 µM; in the experiment on SK-MEL-5 melanoma, above 100 µM; with ACHN renal, above 62.3 µM. The TGI was above 100 µM with BT-549 breast; above 100 µM with HL-60(TB) leukemia; 35.2 µM in the experiment with UO-31 renal; 6.04 µM in the experiment on HOP-92 NSCLC; above 100 µM in the experiment on MDA-N; above 100 µM in the experiment with EKVX NSCLC.
Turning to `O=C1C=C(c2ccccc2)O/C1=C\C(=O)c1ccc(Cl)cc1`, the TGI in the experiment on 786-0 renal is 28.8 µM; with OVCAR-5 ovarian, 88 µM; in the experiment on PC-3 prostate it was 30.3 µM; in the experiment on SNB-75 CNS, 18.2 µM; in the experiment on SR leukemia, above 100 µM; in the experiment on SK-MEL-5 melanoma it was 91.9 µM. The TGI in the experiment with ACHN renal was 29.7 µM; with BT-549 breast, 25.3 µM; in the experiment on UO-31 renal it was 35.8 µM; with HOP-92 NSCLC, 50 µM; with MDA-N, 38.7 µM; in the experiment on EKVX NSCLC, above 100 µM.
As for `COC(=O)Cn1c(=O)oc2nc(-c3ccccc3)cc(C(F)(F)F)c21`, the TGI with 786-0 renal was above 100 µM; in the experiment on OVCAR-5 ovarian, above 100 µM; in the experiment on PC-3 prostate, above 100 µM; in the experiment with SNB-75 CNS, above 100 µM; with SR leukemia, above 100 µM; in the experiment on SK-MEL-5 melanoma it was 61.9 µM. For the same compound, the TGI was above 100 µM in the experiment on ACHN renal; above 100 µM in the experiment with BT-549 breast; above 100 µM in the experiment with UO-31 renal; 89.3 µM in the experiment with HOP-92 NSCLC; above 100 µM with MDA-N; above 100 µM in the experiment on EKVX NSCLC.
Consider `CCNc1nnc(-c2ccccc2Nc2ccccc2-c2nnc(NCC)s2)s1`, for which the TGI with 786-0 renal was 17 µM; in the experiment with OVCAR-5 ovarian, 48.5 µM; in the experiment with PC-3 prostate, above 69.4 µM; with SNB-75 CNS it was above 87.9 µM; in the experiment with SR leukemia, above 100 µM; with SK-MEL-5 melanoma, 25.6 µM. The TGI in the experiment on ACHN renal was 31 µM; with BT-549 breast, above 79.7 µM; with UO-31 renal, 21.3 µM; in the experiment on HOP-92 NSCLC, 54.2 µM; with MDA-N, 35 µM; in the experiment with EKVX NSCLC, above 100 µM.
